Assay results reported in PubChem BioAssay (NCI).
Values joined by “and” are separate entries in the source; they are usually repeats but may differ in a detail not shown here. Identical values can stand only once.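 Grown in 96-well plates, cells were treated for 48 hours with each compound at five concentrations. Insufficient inhibition: endpoint recorded as highest concentration tested. GI50 marks 50% less growth. TGI marks complete inhibition of growth.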

Columns and labels:
Test in all cases: NCI anticancer screen, dose series, 48 h
[1] = tested on: DMS 114 small cell lung
[2] = tested on: DLD-1 colon
[3] = tested on: M19-MEL melanoma
[4] = tested on: RXF-631 renal
[5] = tested on: SNB-78 CNS
[6] = tested on: HOP-18 NSCLC
[7] = tested on: DMS 273 small cell lung
[8] = tested on: MDA-N
[9] = tested on: XF 498 CNS
[10] = tested on: SN12K1 renal

| SMILES | TGI [1] | TGI [2] | TGI [3] | TGI [4] | TGI [5] | TGI [6] | TGI [7] | TGI [8] | TGI [9] | further results |
| --- | --- | --- | --- | --- | --- | --- | --- | --- | --- | --- |
| Oc1ccc2ccccc2c1N=Nc1ccsc1 | > 100 µM | > 100 µM | > 100 µM | > 100 µM | > 100 µM | > 100 µM | > 100 µM | – | – | – |
| COc1cc(-c2cc(O)c(-c3ccc4ccccc4n3)c(=O)[nH]2)cc(OC)c1OC | – | – | – | – | – | – | – | 34.9 µM | – | – |
| C[C@]12CC/C(=N\O)C=C1CC[C@@H]1C2CC[C@@]2(C)C1CC[C@@H]2OC1CCCCO1 (some centres undefined) | 46.6 µM | > 100 µM | 35.1 µM | – | 41.7 µM | 30 µM | 32.6 µM | – | – | – |
| COc1c2ccoc2c(OC)c2oc(=O)ccc12 | – | – | – | – | – | – | – | > 100 µM | – | – |
| C/C(=N\NS(=O)(=O)c1ccc(C)cc1)P(=O)(O)O | – | – | – | – | – | – | – | > 100 µM | – | – |
| Cn1cnc([N+](=O)[O-])c1Sc1nccn1-c1cccc2ccccc12 | 62 µM | 98.5 µM | 98.9 µM | 84.2 µM | 77.9 µM | 8.89 µM | 79.8 µM | – | 58.9 µM | – |
| Cc1ccc(S(=O)(=O)NC2(C=O)CCCC3CCCCC32)cc1 (centres undefined) | > 100 µM | > 100 µM | > 100 µM | > 100 µM | > 100 µM | > 100 µM | > 100 µM | – | – | – |
| CC(=O)C1C(c2ccc(N(C)C)cc2)c2cc3c(cc2OC1(C)O)OCO3 (centres undefined) | 93.3 µM | > 100 µM | > 100 µM | – | > 100 µM | > 100 µM | > 100 µM | – | > 100 µM | – |
| COc1cc(N(C)C)c(OC)cc1/C=C\c1ccnc2ccccc12 | – | – | – | – | – | – | – | 3.97 µM | – | – |
| CN1C(=O)C2C3C=C4c5ccccc5N(c5ccccc5)C4(C2C1=O)[C@H]1C(=O)N(C)C(=O)[C@@H]31 (some centres undefined) | > 100 µM | > 100 µM | > 100 µM | – | – | – | – | – | > 100 µM | – |
| O=c1c(Br)cc2nc3ccccc3sc-2c1Br | 34.6 µM | > 100 µM | 32.4 µM | > 100 µM | > 100 µM | – | > 100 µM | – | 61.8 µM | – |
| CC(=O)OC[C@@H](COC(=O)/C=C/c1ccc(O)cc1)OC1OC(CO)C(O)C(O)C1O (some centres undefined) | – | > 100 µM | > 100 µM | > 100 µM | > 100 µM | > 100 µM | – | – | > 100 µM | – |
| CCOC(=O)N1CCC(=O)C(CNC23CC4CC(CC(C4)C2)C3)C1 (centres undefined) | – | 46.4 µM | 35.3 µM | > 100 µM | – | – | 52.9 µM | – | 32.8 µM | – |
| CC12CCC3(OCCO3)C(OC(=O)c3ccccc3)=C1CCC21OCCO1 (centres undefined) | > 100 µM | > 100 µM | > 100 µM | > 100 µM | > 100 µM | > 100 µM | > 100 µM | – | – | – |
| CC(C)=CCC/C(C)=C/CC/C(C)=C/CSc1ccccc1C(=O)O | – | – | – | – | – | – | – | 57.8 µM | – | – |
| O=C(O)CCC(N=Cc1nc(-c2ccccc2)oc1O)C(=O)O (centres undefined) | > 100 µM | > 100 µM | > 100 µM | > 100 µM | > 100 µM | > 100 µM | > 100 µM | – | – | – |
| COc1ccc2ccccc2c1C1NC(=O)c2ccccc2N1 (centres undefined) | – | – | – | – | – | – | – | 0.413 µM | – | – |
| O=c1[nH]c(=S)[nH]c2c1CN(CCCN1CCOCC1)CN2 | – | – | – | – | – | – | – | > 100 µM | – | – |
| O=C(O)C1(C(=O)O)CCC1.[NH2-].[NH2-].[Pt+2] | – | > 237 µM | – | – | 217 µM | 118 µM | 228 µM | > 250 µM | – | GI50 [2]: 206 µM; GI50 [8]: 182 µM and > 220 µM; GI50 [5]: 96.4 µM; GI50 [6]: > 77.3 µM and 111 µM; GI50 [7]: 64.7 µM; GI50 [10]: 107 µM; TGI [10]: 185 µM |

| SMILES | TGI [1] | TGI [2] | TGI [3] | TGI [4] | TGI [5] | TGI [6] | TGI [7] | TGI [8] | TGI [9] | further results |
| --- | --- | --- | --- | --- | --- | --- | --- | --- | --- | --- |
| NCC1OC(n2cnc3c(N)ncnc32)CC1O (centres undefined) | – | – | – | – | – | – | – | > 100 µM | – | – |
| CC(=O)OC(C)(C)/C(C)=C/C(=O)O[C@H]1C(=O)O[C@@H]2C[C@H]3[C@H](C)C(=O)C(O[C@@H]4O[C@H](CO)[C@@H](O)[C@H](O)[C@H]4O)=C[C@]3(C)[C@H]3[C@@H](O)[C@H](O)[C@@]4(C(=O)O)OC[C@]32[C@@H]14 | – | – | – | – | – | – | – | > 100 µM | – | GI50 [8]: > 100 µM |
| COC(=O)C(C(=O)OC)C1CCCC(=O)C1 (centres undefined) | – | > 100 µM | > 100 µM | – | > 100 µM | > 100 µM | > 100 µM | – | > 100 µM | – |
| CCC[CH2][Sn]1([CH2]CCC)[O]CC(CN(C)Cc2ccccc2)[O]1 (centres undefined) | 14.3 µM | 26.1 µM | 19.8 µM | – | 10.8 µM | – | 20.5 µM | – | 9.77 µM | GI50 [1]: 4.73 µM; GI50 [2]: 12.3 µM; GI50 [3]: 6.73 µM; GI50 [9]: 3.33 µM; GI50 [5]: 2.14 µM; GI50 [7]: 4.93 µM |
| Nc1nnnn1CCO | – | – | – | – | – | – | – | > 100 µM | – | – |
| Cc1cccc(C)c1NC(=O)C1C(=O)N(c2c(C)cccc2C)C(=O)/C1=N\N (centres undefined) | – | > 100 µM | > 100 µM | > 100 µM | – | > 100 µM | > 100 µM | – | – | – |
| O=C(CCN1CCN(c2ccccc2)CC1)N1CCc2c([nH]c3ccccc23)C1c1cccnc1 (centres undefined) | 27 µM | 36.2 µM | 37.1 µM | – | 37 µM | 36.1 µM | 32.3 µM | – | – | – |
| NC(=O)/N=C1/CCC2C3CCCC2C13 | > 100 µM | > 100 µM | – | – | > 100 µM | > 100 µM | > 100 µM | – | > 100 µM | – |
| COC(=O)c1cccn1C(=O)n1cccc1 | > 100 µM | > 100 µM | > 100 µM | – | > 100 µM | > 100 µM | > 100 µM | – | > 100 µM | – |
| CC1CCCC(C(O)CC2CC(=O)NC(=O)C2)C1O (centres undefined) | – | – | – | – | – | – | – | > 100 µM | – | – |
| CN(C)CCNC(=O)c1cccc(N(C)C(=O)c2ccccc2)c1[N+](=O)[O-] | – | – | – | – | – | – | – | > 100 µM | – | – |
| Nc1nc2c(ncn2C2C=CC(CO)C2)c(=O)[nH]1 (centres undefined) | – | – | – | – | – | – | – | > 100 µM | – | – |
| C/C(CC(=O)Nc1ccc(C)c(C)c1)=N\NC(N)=O | > 100 µM | > 100 µM | > 100 µM | – | > 100 µM | – | – | – | – | – |
| CC(C)([NH-])CO.CC(C)([NH-])CO.[Cl][Cd][Cl] | 46.7 µM | – | 38.3 µM | – | – | – | 30.2 µM | – | 69.1 µM | GI50 [1]: 19.8 µM; GI50 [3]: 16.9 µM; GI50 [9]: 20.4 µM; GI50 [7]: 13.5 µM |
| Cc1ccc(NC(=O)CC2Sc3ccccc3NC2=O)c(C)c1 (centres undefined) | 51.7 µM | 31 µM | 48.2 µM | 33.1 µM | 63.2 µM | 30.2 µM | 37.5 µM | – | 37.5 µM | – |
| O=[P+](O)c1ccsc1 | > 100 µM | > 100 µM | > 100 µM | > 100 µM | – | > 100 µM | > 100 µM | – | – | – |
| O=C(c1ccccc1)C1OC12C(=O)Nc1c(Cl)cc(Cl)cc12 (centres undefined) | > 100 µM | 45.7 µM | > 77.6 µM | > 100 µM | 99.9 µM | > 100 µM | 47.7 µM | – | 65.1 µM | – |
| Oc1ccc(C(c2ccc(O)cc2)c2ccc(O)cc2)cc1 | – | – | – | – | – | – | – | 56 µM | – | – |
| CCC/C(=N\NC(=S)N1CC2CCC(CC2)C1)c1ccccn1 | – | 3.33 µM | 0.298 µM and 1.46 µM | – | 8.71 µM | 0.44 µM and 0.898 µM | 0.374 µM and 2.35 µM | 2.72 µM | 0.0981 µM and 0.53 µM | GI50 [9]: 0.0106 µM; GI50 [5]: 0.408 µM; GI50 [6]: 0.0675 µM |
